In patent publication US20210353579A1, “HIGH PENETRATION COMPOSITIONS AND USES THEREOF” (Techfields Pharma Co., Ltd., priority 2006, published 2021):
Values after ≈ are worked out from the molar mass of the structure shown.

Experiments:
rats = assay: Antipyretic activity, E. coli suspension as pyrogen; assay type: in vivo; conditions: in °C (unit assumed)
Protocol: Rats are administered with sterilized E. coli suspension as a pyrogen. Each group of rats are administered with a prodrug compounds or parent compounds at a dosage specified below. The prodrug compounds are administered either orally or transdermally. The parent compounds are administered orally.

mice = assay: Analgesic activity, acetic acid writhing; assay type: in vivo
Protocol: The prodrug compounds are administered either transdermally or orally. The parent compounds are administered orally. The number of writhing that occurred when mice are administered the acetic acid solution are counted, and the rate of inhibition based on the control group which was not pretreated with any test compounds is calculated. […] The A group is the control group.

human skin tissue = conditions: pH 7.4; for In vitro penetration rate (apparent flux), parent compounds: human, 20 %
[1] = Plasma levels after transdermal administration to hairless mice; assay type: in vivo; conditions: for Peak plasma concentration of parent compound after prodrug compound / t, time to peak plasma level of parent compound after prodrug compound: mouse, in vivo; for t, time to peak plasma level after parent compound: parent compound administered (time when taken orally); for Peak plasma concentration after parent compound: parent compound administered, hairless mice
Protocol: Tested compounds (20% solution or suspension in 1 mL isopropanol) are administered transdermally to the skin of intact hairless mice. The plasma levels of the parent compounds are determined by HPLC.

[2] = Solubility in water / aqueous solubility of HPPs and parent drugs; conditions: for solubility: water; for Solubility in water: product as prepared in Example 1
[3] = 50 mg/kg transdermally, 60 minutes before acetic acid
[4] = 100 mg/kg transdermally, 30 min before acetic acid

Molecule | In vitro penetration rate (apparent flux), prodrug compounds (human skin tissue) [μg/cm^2/h] | Peak plasma concentration of parent compound after prodrug compound [1] [mg/L] | t, time to peak plasma level of parent compound after prodrug compound [1] [min] | body temperature, t = 0 min (rats; 100 mg/kg transdermally) | body temperature, t = 90 min (rats; 100 mg/kg transdermally) | body temperature, t = 180 min (rats; 100 mg/kg transdermally) | body temperature, t = 270 min (rats; 100 mg/kg transdermally) | % (rate of writhing inhibition) (mice; [4]) [%] | No. of Writhing (mice; [4]) | also measured
8-chloro-(4-N,N-dimethylaminobutyryloxy-pyridine-2-ylamino-methylidene)-3-methyl-2,2-dioxo-2λ^6,7-dithia-3-azabicyclo[4,3,0]nona-8,10-dien-5-one.HCl | – | – | – | – | – | – | – | – | – | body temperature, t = 0 min (rats; 25 mg/kg transdermally): 37.53 ± 0.05; body temperature, t = 90 min (rats; 25 mg/kg transdermally): 36.57 ± 0.05; body temperature, t = 180 min (rats; 25 mg/kg transdermally): 36.52 ± 0.07; body temperature, t = 270 min (rats; 25 mg/kg transdermally): 36.51 ± 0.06; % (rate of writhing inhibition) (mice; [3]): 50%; No. of Writhing (mice; [3]): 17.5
CN(C)CCCC(=O)OC1=C(C(=O)Nc2ccccn2)N(C)S(=O)(=O)c2ccsc21.Cl [4-N,N-dimethylaminobutyryloxy-2-methyl-N-2-pyridinyl-2H-thieno[2,3-e]-1,2-thiazine-3-carboxamide 1,1-dioxide.HCl] | 1800 | 20 | – | – | – | – | – | – | – | body temperature, t = 0 min (rats; 25 mg/kg transdermally): 37.54 ± 0.06; body temperature, t = 90 min (rats; 25 mg/kg transdermally): 36.61 ± 0.06; body temperature, t = 180 min (rats; 25 mg/kg transdermally): 36.58 ± 0.08; body temperature, t = 270 min (rats; 25 mg/kg transdermally): 36.55 ± 0.05; % (rate of writhing inhibition) (mice; [3]): 53%; No. of Writhing (mice; [3]): 16.9
O=C(O)CCC(=O)c1ccc(-c2ccccc2)cc1 [Fenbufen, fenbufen, reference compound] | – | – | – | – | – | – | – | – | – | In vitro penetration rate (apparent flux), parent compounds (human skin tissue): 40 μg/cm^2/h; t, time to peak plasma level after parent compound [1]: 2 to 4 h; Peak plasma concentration after parent compound [1]: 10 mg/L
CC(C)Cc1ccc(CC(=O)O)cc1 [Ibufenac] | – | – | – | – | – | – | – | – | – | solubility [2]: 0.1 mg/mL (≈ 0.52 mM)
CC(=O)O.CCN(CC)CCNC(=O)CCc1nc(-c2ccccc2)c(-c2ccccc2)o1 [N-diethylaminoethyl 4,5-Diphenyl-2-oxazole propionamide.AcOH] | – | – | – | – | – | – | – | – | – | Solubility in water [2]: 400 mg/mL
CC(=O)O.CN(C)CCNC(=O)Cc1ccccc1Nc1c(Cl)cccc1Cl [N-dimethylaminoethyl 2[(2,6-dichlorophenyl)amino] benzene acetamide.AcOH] | – | – | – | – | – | – | – | – | – | Solubility in water [2]: 450 mg/mL
CC(=O)O.CN(C)CCSC(=O)Cc1ccccc1Nc1c(Cl)cccc1Cl [S-dimethylaminoethyl 2[(2,6-dichlorophenyl)amino] benzene acetate.AcOH] | – | – | – | – | – | – | – | – | – | Solubility in water [2]: 410 mg/mL
CN1C(C(=O)Nc2ccccn2)=C(O)c2sccc2S1(=O)=O [Tenoxicam, tenoxicam, reference compound] | – | – | – | – | – | – | – | – | – | In vitro penetration rate (apparent flux), parent compounds (human skin tissue): <1 μg/cm^2/h; t, time to peak plasma level after parent compound [1]: 2 to 4 h; Peak plasma concentration after parent compound [1]: 0.1 mg/L
CC(=O)O.CCN(CC)CCOC(=O)C(C)c1ccc(-c2ccccc2)c(F)c1 (stereo not shown) [diethylaminoethyl 2-(2-fluoro-4-biphenylyl)propionate.AcOH] | 3500 | 2000 | 50 | 37.29 ± 0.07 | 36.82 ± 0.06 | 36.70 ± 0.05 | 36.67 ± 0.08 | 55 | 15.6 | –
CC(=O)O.CCN(CC)CCOC(=O)C(C)c1ccc(CC2CCCC2=O)cc1 (stereo not shown) [diethylaminoethyl 2-[4-(2-oxocyclopentyl-methyl)phenyl]propionate.AcOH] | 3400 | 2000 | 50 | 37.25 ± 0.06 | 36.71 ± 0.05 | 36.65 ± 0.08 | 36.64 ± 0.07 | 55 | 15.7 | –
CCN(CC)CCOC(=O)c1ccccc1Nc1cccc(Cl)c1C [diethylaminoethyl 2-[(3-chloro-2-methylphenyl)amino]benzoate] | – | – | – | – | – | – | – | – | – | solubility [2]: > 400 mg/mL
CC(=O)O.CCN(CC)CCOC(=O)CCC(=O)c1ccc(-c2ccccc2)cc1 [diethylaminoethyl 3-(4-biphenylylcarbonyl)propionate.AcOH] | 3600 | 2000 | 50 | 37.23 ± 0.06 | 36.81 ± 0.05 | 36.65 ± 0.08 | 36.61 ± 0.07 | 59 | 14.2 | –
CC(=O)O.CCN(CC)CCOC(=O)C(C)c1ccc(N2CC=CC2)c(Cl)c1 (stereo not drawn) [diethylaminoethyl 3-chloro-4-(2,5-dihydro-1H-pyrrol-1-yl)-α-methyl benzeneacetate.AcOH] | 3500 | 2000 | 50 | 37.27 ± 0.06 | 36.68 ± 0.05 | 36.62 ± 0.08 | 36.58 ± 0.07 | 60 | 14.0 | –
CC(=O)O.CCN(CC)CCOC(=O)CCc1nc(-c2ccccc2)c(-c2ccccc2)o1 [diethylaminoethyl 4,5-Diphenyl-2-oxazole propionate.AcOH] | 4000 | 2000 | 50 | 37.24 ± 0.07 | 36.82 ± 0.06 | 36.70 ± 0.05 | 36.67 ± 0.08 | 55 | 15.7 | –
CC(=O)O.CCN(CC)CCOC(=O)CC(O)c1ccc(-c2ccc(Cl)cc2)o1 (stereo not drawn) [diethylaminoethyl 5-(4-chlorophenyl)-beta-hydroxy-2-furanpropionate.AcOH] | 4100 | 2000 | 50 | 37.29 ± 0.07 | 36.82 ± 0.06 | 36.60 ± 0.05 | 36.67 ± 0.08 | 55 | 15.6 | –
CC(=O)O.CCN(CC)CCOC(=O)C1CCn2c(C(=O)c3ccccc3)ccc21 (stereo not shown) [diethylaminoethyl 5-benzoyl-2,3-dihydro-1H-pyrrolizine-1-carboxylate.AcOH] | 3800 | 2000 | 50 | 37.22 ± 0.06 | 36.65 ± 0.06 | 36.58 ± 0.08 | 36.51 ± 0.07 | 54 | 16.1 | –
CC(=O)O.CCN(CC)CCOC(=O)C(C)c1ccc(C(=O)c2ccccc2)s1 (stereo not drawn) [diethylaminoethyl 5-benzoyl-α-methyl-2-thiopheneacetate.AcOH] | 4200 | 2000 | 50 | 37.26 ± 0.06 | 36.65 ± 0.06 | 36.58 ± 0.08 | 36.36 ± 0.07 | 62 | 13.2 | –
